Experimental data: patent US20240383954A1, “PEPTIDE INHIBITORS OF INTERLEUKIN-23 RECEPTOR AND THEIR USE TO TREAT INFLAMMATORY DISEASES” (Janssen Biotech, Inc., priority 2020, published 2024)
Starred links: 1 amine or outer side, 2 acyl side, 3 side chain; linkers in the order of their positions; H or OH if unused. Positions of bridges follow the written chain, without caps; N, C: chain ends. Non-standard residues stand in square brackets, D forms with d. Residues, ends and D or L forms follow the SMILES beside them. *: point of attachment. Phe(3,4-(OMe)2) = COc1ccc(C[C@H](N)C(=O)O)cc1OC; Trp(7-Me) = Cc1cccc2c(C[C@H](N)C(=O)O)c[nH]c12; Phe(3R-Me) = C[C@H](c1ccccc1)[C@H](N)C(=O)O; Abu(4-yl) = O=C([C@H](CC[*:3])N[*:1])[*:2]; 2Nal = N[C@@H](Cc1ccc2ccccc2c1)C(=O)O; AEF = NCCOc1ccc(C[C@H](N)C(=O)O)cc1; αMeF = C[C@](N)(Cc1ccccc1)C(=O)O; αMeE = C[C@](N)(CCC(=O)O)C(=O)O; Pen = CC(C)(S)[C@H](N)C(=O)O; αMeK = C[C@](N)(CCCCN)C(=O)O; αMeC = C[C@](N)(CS)C(=O)O; Isobutyryl = CC(C)C(=O)*; Thp = NC1(C(=O)O)CCOCC1; Ac3c = NC1(C(=O)O)CC1

Biological target: IL-23R (Homo sapiens, UniProt Q5VWK5)
Sequence (Q5VWK5 24-629): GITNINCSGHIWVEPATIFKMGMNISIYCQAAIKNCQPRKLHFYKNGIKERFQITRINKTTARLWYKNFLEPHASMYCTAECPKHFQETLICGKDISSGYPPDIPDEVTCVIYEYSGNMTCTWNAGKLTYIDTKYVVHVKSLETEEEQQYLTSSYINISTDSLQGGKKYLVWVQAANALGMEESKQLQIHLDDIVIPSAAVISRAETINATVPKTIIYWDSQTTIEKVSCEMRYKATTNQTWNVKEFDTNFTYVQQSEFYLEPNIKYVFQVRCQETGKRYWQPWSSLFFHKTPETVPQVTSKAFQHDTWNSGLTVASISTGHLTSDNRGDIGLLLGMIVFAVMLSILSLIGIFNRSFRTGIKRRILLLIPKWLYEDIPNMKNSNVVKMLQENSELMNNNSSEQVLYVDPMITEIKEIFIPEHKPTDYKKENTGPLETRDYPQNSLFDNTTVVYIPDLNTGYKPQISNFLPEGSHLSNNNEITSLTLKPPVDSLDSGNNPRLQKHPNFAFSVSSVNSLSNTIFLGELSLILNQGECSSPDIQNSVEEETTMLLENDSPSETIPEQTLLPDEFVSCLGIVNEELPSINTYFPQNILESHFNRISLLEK
Assay: cell-based
Details: PBMC pSTAT3 IC50 (nM), PBMCs from healthy donors, IL-23 5 ng/mL, 30 minutes, phosphorylated STAT3
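Note: cryopreserved PBMCs stimulated at 37 °C in 5% CO2, then lysed, with phosphorylated STAT3 quantified in lysates using a phospho-STAT panel kit.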

Row | Structure (SMILES) | IC50 [nM]
1 | CC(=O)NCCCC[C@@H]1NC(=O)[C@H](Cc2c[nH]c3ccccc23)NC(=O)[C@H]([C@@H](C)O)NC(=O)[C@H](CCC(N)=O)NC(=O)[C@@H](NC(C)=O)C(C)(C)SSC(C)(C)[C@@H](C(=O)N[C@@H](Cc2ccc(OCCN)cc2)C(=O)N[C@@H](Cc2ccc3ccccc3c2)C(=O)N[C@@](C)(CCCCN)C(=O)N[C@@H](CCCCNC(C)=O)C(=O)N[C@@H](CC(N)=O)C(=O)N[C@@](C)(Cc2ccccc2)C(N)=O)NC1=O [Compound 82, Ac-[Pen]-Q-T-W-[Lys(Ac)]-[Pen]-Phe[4-(2-aminoethoxy)]-[2-Nal]-[a-MeLys]-[Lys(Ac)]-N-[a-MePhe]-NH2] (Ac-[Pen]QTWK(Ac)[Pen][AEF][2Nal][αMeK]K(Ac)N[αMeF]-NH2; disulfide 1-6) | 54
2 | CCC(=O)N[C@H](CCCNC(=N)N)C(=O)N[C@H]1CCSC[C@@H](C(=O)N[C@@H](Cc2ccc(OCCN)cc2)C(=O)N[C@@H](Cc2ccc3ccccc3c2)C(=O)NC2(C(=O)N[C@@H](CCC(=O)O)C(=O)N[C@@H](CC(N)=O)C(=O)NC3(C(N)=O)CCOCC3)CCOCC2)NC(=O)[C@H](CCC(N)=O)NC(=O)[C@H](Cc2c[nH]c3ccccc23)NC(=O)[C@H]([C@@H](C)O)NC(=O)[C@H](CCC(N)=O)NC1=O [Compound 2, [Propionic_acid]-[(D)Arg]-[Abu]-Q-T-W-Q-[Cys]-Phe[4-(2-aminoethoxy)]-[2-Nal]-[THP]-E-N-[THP]-NH2] | 3.3
3 | CC(=O)N[C@H](CCCNC(=N)N)C(=O)N[C@@H]1C(=O)N[C@@H](CCC(N)=O)C(=O)N[C@@H]([C@@H](C)O)C(=O)N[C@@H](Cc2c[nH]c3ccccc23)C(=O)N[C@@H](CCC(N)=O)C(=O)N[C@H](C(=O)N[C@@H](Cc2ccc(OCCN)cc2)C(=O)N[C@@H](Cc2ccc3ccccc3c2)C(=O)NC2(C(=O)N[C@@H](CCCCNC(=O)C(C)C)C(=O)N[C@@H](CC(N)=O)C(=O)N[C@@H](Cc3ccccc3)C(N)=O)CCOCC2)C(C)(C)SSC1(C)C [Compound 61, Ac-[(D)Arg]-[Pen]-Q-T-W-Q-[Pen]-Phe[4-(2-aminoethoxy)]-[2-Nal]-[THP]-[Lys(COiPr)]-N-F-NH2] (Ac-[dR][Pen]QTWQ[Pen][AEF][2Nal][Thp]K(Isobutyryl)NF-NH2; disulfide 2-7) | 70
4 | CC(=O)NCCCC[C@H](NC(=O)[C@](C)(CCCCN)NC(=O)[C@H](Cc1ccc2ccccc2c1)NC(=O)[C@H](Cc1ccc(OCCN)cc1)NC(=O)[C@]1(C)CSSC[C@H](NC(C)=O)C(=O)N[C@@H](CC(N)=O)C(=O)N[C@@H]([C@@H](C)O)C(=O)N[C@@H](Cc2c[nH]c3c(C)cccc23)C(=O)N[C@@H](CCC(N)=O)C(=O)N1)C(=O)N[C@@H](CC(N)=O)C(=O)NC1(C(N)=O)CCOCC1 [Compound 120, Ac-[Cys]-N-T-[W(7-Me)]-Q-[aMeCys]-Phe[4-(2-aminoethoxy)]-[2-Nal]-[a-MeLys]-[Lys(Ac)]-N-[THP]-NH2] | 4.9
5 | CC(=O)NCCCC[C@@H]1NC(=O)[C@H](Cc2c[nH]c3c(C)cccc23)NC(=O)[C@H]([C@@H](C)O)NC(=O)[C@H](CC(N)=O)NC(=O)[C@@H](NC(C)=O)CSSC[C@@](C)(C(=O)N[C@@H](Cc2ccc(OCCN)cc2)C(=O)N[C@@H](Cc2ccc3ccccc3c2)C(=O)N[C@@](C)(CCCCN)C(=O)N[C@@H](CCCCNC(C)=O)C(=O)N[C@@H](CC(N)=O)C(=O)N[C@@](C)(Cc2ccccc2)C(N)=O)NC1=O [Compound 118, Ac-[Cys]-N-T-[W(7-Me)]-[Lys(Ac)]-[aMeCys]-Phe[4-(2-aminoethoxy)]-[2-Nal]-[a-MeLys]-[Lys(Ac)]-N-[a-MePhe]-NH2] | 30
6 | CC(=O)NCCCC[C@@H]1NC(=O)[C@H](Cc2c[nH]c3c(C)cccc23)NC(=O)[C@H]([C@@H](C)O)NC(=O)[C@H](CC(N)=O)NC(=O)[C@@H](NC(=O)[C@@H](CCCNC(=N)N)NC(C)=O)CSSC[C@@](C)(C(=O)N[C@@H](Cc2ccc(OCCN)cc2)C(=O)N[C@@H](Cc2ccc3ccccc3c2)C(=O)NC2(C(=O)N[C@@H](CCC(=O)O)C(=O)N[C@@H](CC(N)=O)C(=O)NC3(C(N)=O)CCOCC3)CC2)NC1=O [Compound 310, MeCO-r-C-N-T-7MeW-K(Ac)- aMeC-AEF-2Nal-Acpx-E-N-THP-CONH2] (Ac-[dR]CNT[Trp(7-Me)]K(Ac)[αMeC][AEF][2Nal][Ac3c]EN[Thp]-NH2; disulfide 2-7) | 9.9
7 | CC(=O)NCCCC[C@@H]1NC(=O)[C@H](Cc2c[nH]c3c(C)cccc23)NC(=O)[C@H]([C@@H](C)O)NC(=O)[C@H](CC(N)=O)NC(=O)[C@@H](NC(=O)[C@@H](CCCNC(=N)N)NC(C)=O)C(C)(C)SSC(C)(C)[C@@H](C(=O)N[C@@H](Cc2ccc(OCCN)cc2)C(=O)N[C@@H](Cc2ccc3ccccc3c2)C(=O)NC2(C(=O)N[C@@H](CCC(=O)O)C(=O)N[C@@H](CC(N)=O)C(=O)N[C@H](C(N)=O)[C@H](C)c3ccccc3)CCOCC2)NC1=O [Compound 313, MeCO-r-Pen-N-T-7MeTrp-K(Ac)-Pen-AEF-2Nal-THP-E-N-bMePhe(S,R)---CONH2] (Ac-[dR][Pen]NT[Trp(7-Me)]K(Ac)[Pen][AEF][2Nal][Thp]EN[Phe(3R-Me)]-NH2; disulfide 2-7) | 21
8 | COc1ccc(C[C@H](NC(=O)[C@@H]2CSCC[C@H](NC(=O)[C@@H](CCCNC(=N)N)NC(C)=O)C(=O)N[C@@H](CCC(N)=O)C(=O)N[C@@H]([C@@H](C)O)C(=O)N[C@@H](Cc3c[nH]c4ccccc34)C(=O)N[C@@H](CCC(N)=O)C(=O)N2)C(=O)N[C@@H](Cc2ccc3ccccc3c2)C(=O)NC2(C(=O)N[C@@](C)(CCC(=O)O)C(=O)N[C@@H](CC(N)=O)C(=O)N[C@@](C)(Cc3ccccc3)C(N)=O)CCOCC2)cc1OC [Compound 41, Ac-[(D)Arg]-[Abu]-Q-T-W-Q-[Cys]-[Phe(3,4-diOMe)]-[2-Nal]-[THP]-[aMeGlu]-N-[a-MePhe]-NH2] (Ac-[dR][Abu(4-yl)]QTWQC[Phe(3,4-(OMe)2)][2Nal][Thp][αMeE]N[αMeF]-NH2; thioether 2-7) | 2500
9 | CC(=O)N[C@H](CCCNC(=N)N)C(=O)N[C@H]1CCSC[C@@H](C(=O)N[C@@H](Cc2ccc(OCCN)cc2)C(=O)N[C@@H](Cc2ccc3ccccc3c2)C(=O)NC2(C(=O)N[C@@](C)(CCC(=O)O)C(=O)N[C@@H](CC(N)=O)C(=O)N[C@@](C)(Cc3ccc(F)cc3)C(N)=O)CCOCC2)NC(=O)[C@H](CCC(N)=O)NC(=O)[C@H](Cc2c[nH]c3ccccc23)NC(=O)[C@H]([C@@H](C)O)NC(=O)[C@H](CCC(N)=O)NC1=O [Compound 36, Ac-[(D)Arg]-[Abu]-Q-T-W-Q-[Cys]-Phe[4-(2-aminoethoxy)]-[2-Nal]-[THP]-[aMeGlu]-N-[aMe(4-F)Phe]-NH2] | 14
10 | CC(=O)N[C@H](CCCNC(=N)N)C(=O)N[C@H]1CCSC[C@@H](C(=O)N[C@@H](Cc2ccc(OCCN)cc2)C(=O)N[C@@H](Cc2ccc3ccccc3c2)C(=O)NC2(C(=O)N[C@@](C)(CCC(=O)O)C(=O)N[C@@H](CC(N)=O)C(=O)N[C@@](C)(Cc3ccc(O)cc3)C(N)=O)CCOCC2)NC(=O)[C@H](CCC(N)=O)NC(=O)[C@H](Cc2c[nH]c3ccccc23)NC(=O)[C@H]([C@@H](C)O)NC(=O)[C@H](CCC(N)=O)NC1=O [Compound 44, Ac-[(D)Arg]-[Abu]-Q-T-W-Q-[Cys]-Phe[4-(2-aminoethoxy)]-[2-Nal]-[THP]-[aMeGlu]-N-[aMeTyr]-NH2] | 9.3
11 | CC(=O)N[C@H](CCCNC(=N)N)C(=O)N[C@H]1CCSC[C@@H](C(=O)N[C@@H](Cc2ccc(OCCN)cc2)C(=O)N[C@@H](Cc2ccc3ccccc3c2)C(=O)NC2(C(=O)N[C@@](C)(CCC(=O)O)C(=O)N[C@@H](CC(N)=O)C(=O)N[C@@H](Cc3ccc4ccccc4c3)C(N)=O)CCOCC2)NC(=O)[C@H](CCC(N)=O)NC(=O)[C@H](Cc2c[nH]c3ccccc23)NC(=O)[C@H]([C@@H](C)O)NC(=O)[C@H](CCC(N)=O)NC1=O [Compound 35, Ac-[(D)Arg]-[Abu]-Q-T-W-Q-[Cys]-Phe[4-(2-aminoethoxy)]-[2-Nal]-[THP]-[aMeGlu]-N-[2-Nal]-NH2] | 25
12 | CC(=O)NCCCC[C@@H]1NC(=O)[C@H](Cc2c[nH]c3c(C)cccc23)NC(=O)[C@H]([C@@H](C)O)NC(=O)[C@H](CC(N)=O)NC(=O)[C@@H](NC(C)=O)C(C)(C)SSC(C)(C)[C@@H](C(=O)N[C@@H](Cc2ccc(OCCN)cc2)C(=O)N[C@@H](Cc2ccc3ccccc3c2)C(=O)NC2(C(=O)N[C@@H](CCCCNC(=O)C(C)(C)C)C(=O)N[C@@H](CC(N)=O)C(=O)N[C@@](C)(Cc3ccccc3)C(N)=O)CCOCC2)NC1=O [Compound 139, Ac-[Pen]-N-T-[W(7-Me)]-[Lys(Ac)]-[Pen]-Phe[4-(2-aminoethoxy)]-[2-Nal]-[THP]-[Lys(COtBu)]-N-[a-MePhe]-NH2] | 6.6
13 | CC(=O)N[C@H](CCCNC(=N)N)C(=O)N[C@@H]1C(=O)N[C@@H](CC(N)=O)C(=O)N[C@@H]([C@@H](C)O)C(=O)N[C@@H](Cc2c[nH]c3c(C)cccc23)C(=O)N[C@@H](CCC(N)=O)C(=O)N[C@H](C(=O)N[C@@H](Cc2ccc(OCCN)cc2)C(=O)N[C@@H](Cc2ccc3ccccc3c2)C(=O)NC2(C(=O)N[C@@H](CCC(=O)O)C(=O)N[C@@H](CC(N)=O)C(=O)NC3(C(N)=O)CCOCC3)CCOCC2)C(C)(C)SSC1(C)C [Compound 90, Ac-[(D)Arg]-[Pen]-N-T-[W(7-Me)]-Q-[Pen]-Phe[4-(2-aminoethoxy)]-[2-Nal]-[THP]-E-N-[THP]-NH2] (Ac-[dR][Pen]NT[Trp(7-Me)]Q[Pen][AEF][2Nal][Thp]EN[Thp]-NH2; disulfide 2-7) | 3.7
14 | CC(=O)N[C@H](CCCNC(=N)N)C(=O)N[C@H]1CCSC[C@@H](C(=O)N[C@@H](Cc2ccc(OCCN)cc2)C(=O)N[C@@H](Cc2ccc3ccccc3c2)C(=O)NC2(C(=O)N[C@@](C)(CCC(=O)O)C(=O)N[C@@H](CC(N)=O)C(=O)N[C@@](C)(Cc3c[nH]c4ccccc34)C(N)=O)CCOCC2)NC(=O)[C@H](CCC(N)=O)NC(=O)[C@H](Cc2c[nH]c3ccccc23)NC(=O)[C@H]([C@@H](C)O)NC(=O)[C@H](CCC(N)=O)NC1=O [Compound 31, Ac-[(D)Arg]-[Abu]-Q-T-W-Q-[Cys]-Phe[4-(2-aminoethoxy)]-[2-Nal]-[THP]-[aMeGlu]-N-ameW-NH2] | 16
